Source: ChEMBL document CHEMBL1201862, “PubChem BioAssay data set” (2004)
One block for each molecule: values may come before it. Activity calls are given as the source filed them.

Legend:
SUMO-activating enzyme [1] = molecular target: T1, SUMO-activating enzyme (Homo sapiens, UniProt Q9UBT2); assay: blockers of UBC9-mediated SUMO conjugation – biochemical, AlphaScreen, SUMOylation inhibitor project, confirmation (AID 2018); format: functional
SUMO-activating enzyme [2] = molecular target: T1, SUMO-activating enzyme; assay: blockers of SAE1/SAE2–UBC9 SUMO transfer – biochemical, HTRF, uHTS, primary screen (AID 2006); format: protein-complex assay
[3] = protection from phage-mediated lysis, alamar blue read-out – E. coli UTI89, K1F phage, bacterial capsule biogenesis inhibitors (AID 488966); format: functional
Hexokinase = Hexokinase (Trypanosoma brucei, UniProt Q38C41); assay: Confirmation assay for inhibitors of Trypanosoma brucei hexokinase 1-Analogue-first series. [Related pubchem assays (depositor defined):AID1430, AID1632, AID2516, AID2560, AID2579, AID2600, AID449725, AID492951]; format: functional
Hexokinase, sequence (Q38C41 whole entry): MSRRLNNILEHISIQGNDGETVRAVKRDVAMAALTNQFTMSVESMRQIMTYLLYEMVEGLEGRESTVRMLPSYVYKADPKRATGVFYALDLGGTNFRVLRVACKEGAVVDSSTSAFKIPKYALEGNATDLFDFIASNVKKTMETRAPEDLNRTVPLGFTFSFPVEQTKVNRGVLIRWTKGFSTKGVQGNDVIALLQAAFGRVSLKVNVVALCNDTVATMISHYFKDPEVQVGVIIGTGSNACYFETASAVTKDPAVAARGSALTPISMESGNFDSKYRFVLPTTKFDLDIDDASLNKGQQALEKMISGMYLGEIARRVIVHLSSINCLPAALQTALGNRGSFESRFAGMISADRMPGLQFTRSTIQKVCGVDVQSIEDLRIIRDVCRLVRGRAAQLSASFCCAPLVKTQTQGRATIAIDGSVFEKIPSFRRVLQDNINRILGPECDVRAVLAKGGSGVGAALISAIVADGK

[4] = molecular target: T2, Tyrosine-protein phosphatase non-receptor type 7 (Homo sapiens, UniProt P35236); assay: redox-active compounds inhibiting HePTP phosphatase – biochemical, fluorescence, mechanism study (AID 2068); format: functional
T2 sequence (P35236 whole entry): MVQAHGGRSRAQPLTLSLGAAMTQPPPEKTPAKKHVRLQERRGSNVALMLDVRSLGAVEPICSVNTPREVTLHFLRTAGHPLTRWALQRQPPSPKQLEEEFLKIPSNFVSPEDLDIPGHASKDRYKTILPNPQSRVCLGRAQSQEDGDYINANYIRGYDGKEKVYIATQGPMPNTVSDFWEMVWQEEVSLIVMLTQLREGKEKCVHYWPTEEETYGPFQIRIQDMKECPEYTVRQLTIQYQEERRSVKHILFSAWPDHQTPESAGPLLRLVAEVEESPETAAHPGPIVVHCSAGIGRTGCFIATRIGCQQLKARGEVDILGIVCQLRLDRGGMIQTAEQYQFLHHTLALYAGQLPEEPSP

[5] = molecular target: Induced myeloid leukemia cell differentiation protein Mcl-1 (Homo sapiens, UniProt Q07820); format: functional
Induced myeloid leukemia cell differentiation protein Mcl-1, sequence (Q07820 whole entry, the tested form may be a part): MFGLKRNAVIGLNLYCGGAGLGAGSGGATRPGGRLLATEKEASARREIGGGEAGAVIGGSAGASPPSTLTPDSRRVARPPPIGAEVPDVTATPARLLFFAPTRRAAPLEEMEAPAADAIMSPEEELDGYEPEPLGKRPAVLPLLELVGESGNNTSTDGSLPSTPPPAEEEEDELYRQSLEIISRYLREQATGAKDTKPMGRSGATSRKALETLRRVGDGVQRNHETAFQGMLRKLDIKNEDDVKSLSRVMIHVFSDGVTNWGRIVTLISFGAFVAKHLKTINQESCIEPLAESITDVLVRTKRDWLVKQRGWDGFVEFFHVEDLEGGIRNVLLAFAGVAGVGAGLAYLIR

[6] = molecular target: T3, Polyadenylate-binding protein 1 (Homo sapiens, UniProt P11940); assay: MLLE domain peptide-binding blockers, IC50 – biochemical, fluorescence polarization, FITC-PAM2 peptide, dose response (AID 602259); format: functional; conditions: read-out: IC50_Mean
T3 sequence (P11940 whole entry, the tested form may be a part): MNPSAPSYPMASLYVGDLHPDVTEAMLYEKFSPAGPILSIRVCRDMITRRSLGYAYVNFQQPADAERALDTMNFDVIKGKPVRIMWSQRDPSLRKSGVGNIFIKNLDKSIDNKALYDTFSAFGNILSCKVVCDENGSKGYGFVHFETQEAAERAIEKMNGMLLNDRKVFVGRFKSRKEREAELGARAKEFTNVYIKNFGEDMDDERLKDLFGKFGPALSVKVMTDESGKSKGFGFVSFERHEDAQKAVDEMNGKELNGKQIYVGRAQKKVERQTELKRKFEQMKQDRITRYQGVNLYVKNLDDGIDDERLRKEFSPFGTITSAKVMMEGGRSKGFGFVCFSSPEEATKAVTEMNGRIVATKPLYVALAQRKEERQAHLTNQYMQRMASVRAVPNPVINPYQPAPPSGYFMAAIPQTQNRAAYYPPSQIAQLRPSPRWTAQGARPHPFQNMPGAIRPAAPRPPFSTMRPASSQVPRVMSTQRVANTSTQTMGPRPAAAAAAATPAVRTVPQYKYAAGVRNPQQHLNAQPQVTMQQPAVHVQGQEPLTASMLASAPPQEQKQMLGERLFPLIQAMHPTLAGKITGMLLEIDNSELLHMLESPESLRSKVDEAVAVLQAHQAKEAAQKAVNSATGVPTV

[7] = molecular target: T4, Zinc finger protein mex-5 (Caenorhabditis elegans, UniProt Q9XUB2); assay: potency of MEX-5 RNA-binding blockers – biochemical, C. elegans, fluorescence polarization, dose response (AID 1960)
T4 sequence (Q9XUB2 whole entry): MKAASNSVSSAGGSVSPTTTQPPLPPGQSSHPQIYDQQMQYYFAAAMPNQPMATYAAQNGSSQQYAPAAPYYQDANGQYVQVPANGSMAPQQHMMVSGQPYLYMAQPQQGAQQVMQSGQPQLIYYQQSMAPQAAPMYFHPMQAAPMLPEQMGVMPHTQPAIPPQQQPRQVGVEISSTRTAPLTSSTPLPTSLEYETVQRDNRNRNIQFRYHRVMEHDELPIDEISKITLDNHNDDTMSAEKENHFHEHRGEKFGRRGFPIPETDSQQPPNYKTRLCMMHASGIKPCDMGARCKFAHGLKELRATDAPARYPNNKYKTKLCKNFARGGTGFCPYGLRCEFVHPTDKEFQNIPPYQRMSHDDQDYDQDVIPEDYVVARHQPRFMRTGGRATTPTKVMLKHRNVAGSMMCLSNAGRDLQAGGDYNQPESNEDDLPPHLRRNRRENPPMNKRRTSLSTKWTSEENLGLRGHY

Genome polyprotein = Genome polyprotein (dengue virus type 2, UniProt P29990); assay: flavivirus cap methylation enzyme inhibition – biochemical, confirmation dose response, primary screen (AID 588689); format: functional
Genome polyprotein, sequence (P29990 2492-3391 limits assumed): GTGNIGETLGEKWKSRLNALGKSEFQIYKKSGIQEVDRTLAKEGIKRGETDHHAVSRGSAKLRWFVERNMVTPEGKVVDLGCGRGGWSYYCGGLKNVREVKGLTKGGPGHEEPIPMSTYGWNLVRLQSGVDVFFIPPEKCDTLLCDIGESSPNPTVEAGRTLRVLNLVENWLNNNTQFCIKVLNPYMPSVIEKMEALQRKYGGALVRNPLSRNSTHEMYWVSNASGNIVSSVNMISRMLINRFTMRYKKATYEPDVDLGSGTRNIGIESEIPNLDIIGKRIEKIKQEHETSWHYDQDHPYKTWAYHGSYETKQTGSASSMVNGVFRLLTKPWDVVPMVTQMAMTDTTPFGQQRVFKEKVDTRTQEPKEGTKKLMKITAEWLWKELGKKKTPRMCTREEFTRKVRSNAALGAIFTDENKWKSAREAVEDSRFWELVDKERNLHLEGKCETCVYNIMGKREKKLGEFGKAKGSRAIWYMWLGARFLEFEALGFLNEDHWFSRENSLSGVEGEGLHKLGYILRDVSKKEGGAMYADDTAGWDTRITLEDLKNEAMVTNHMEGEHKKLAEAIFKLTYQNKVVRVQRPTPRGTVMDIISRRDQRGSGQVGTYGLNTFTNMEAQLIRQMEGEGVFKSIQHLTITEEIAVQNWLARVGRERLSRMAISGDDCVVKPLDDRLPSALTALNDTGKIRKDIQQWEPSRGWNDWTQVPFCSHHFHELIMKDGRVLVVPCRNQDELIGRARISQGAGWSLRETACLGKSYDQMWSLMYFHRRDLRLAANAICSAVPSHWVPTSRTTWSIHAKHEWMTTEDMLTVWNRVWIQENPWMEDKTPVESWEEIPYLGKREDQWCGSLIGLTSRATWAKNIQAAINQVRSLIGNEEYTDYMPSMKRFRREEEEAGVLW

[8] = molecular target: T5, RNA-binding protein pos-1 (Caenorhabditis elegans, UniProt G5EF15); assay: disruptors of C. elegans POS-1 RNA interaction – biochemical, fluorescence polarization, dose response (AID 1964);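 note: purified POS-1 fused to maltose binding protein made in E. coli; potency of compounds blocking POS-1 binding to fluorescent RNA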
T5 sequence (G5EF15 whole entry): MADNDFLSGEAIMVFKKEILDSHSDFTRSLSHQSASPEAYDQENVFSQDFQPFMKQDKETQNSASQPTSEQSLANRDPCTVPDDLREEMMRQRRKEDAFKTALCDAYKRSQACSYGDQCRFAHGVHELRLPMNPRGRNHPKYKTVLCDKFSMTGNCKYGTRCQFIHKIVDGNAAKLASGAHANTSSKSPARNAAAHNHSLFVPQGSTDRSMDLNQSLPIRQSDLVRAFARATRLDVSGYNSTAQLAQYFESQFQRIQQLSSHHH

[9] = molecular target: T6, Rac GTPase-activating protein 1 (Homo sapiens, UniProt Q9H0H5); assay: blockers of MgcRacGAP-driven Rac1 GTP hydrolysis – biochemical, ADP Hunter fluorescence, primary and confirmatory, confirmation (AID 624330); format: functional
T6 sequence (Q9H0H5 whole entry): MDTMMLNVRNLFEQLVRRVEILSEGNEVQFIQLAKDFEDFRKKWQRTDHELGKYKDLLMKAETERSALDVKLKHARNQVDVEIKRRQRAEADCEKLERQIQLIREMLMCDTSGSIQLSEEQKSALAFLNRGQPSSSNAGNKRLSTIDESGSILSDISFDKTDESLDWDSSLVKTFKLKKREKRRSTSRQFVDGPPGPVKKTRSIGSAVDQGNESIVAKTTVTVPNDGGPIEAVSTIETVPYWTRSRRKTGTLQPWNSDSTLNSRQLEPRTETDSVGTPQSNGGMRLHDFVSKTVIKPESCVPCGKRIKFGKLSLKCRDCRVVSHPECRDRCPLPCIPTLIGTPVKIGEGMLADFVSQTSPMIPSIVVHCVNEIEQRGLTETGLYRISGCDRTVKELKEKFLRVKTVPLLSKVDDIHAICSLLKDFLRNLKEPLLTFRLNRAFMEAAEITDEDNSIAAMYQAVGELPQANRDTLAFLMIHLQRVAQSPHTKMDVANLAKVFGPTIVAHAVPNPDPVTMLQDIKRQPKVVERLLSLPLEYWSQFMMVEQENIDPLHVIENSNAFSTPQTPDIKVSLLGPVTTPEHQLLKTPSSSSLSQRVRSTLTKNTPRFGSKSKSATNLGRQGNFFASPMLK

[10] = molecular target: T3, Polyadenylate-binding protein 1; assay: MLLE binding blockers, Cy5 peptide tracer – biochemical, fluorescence polarization, Cy5-PAM2 peptide, secondary, miRNA deadenylation inhibitor project, dose response (AID 602260); format: functional; conditions: read-out: IC50_Mean
Troponin, cardiac muscle = Troponin, cardiac muscle (Homo sapiens, UniProt P19429+P45379+P63316); assay: compounds desensitizing RTF to calcium – biochemical, fluorescence, cardiac regulated thin filaments, triplicate IC50, dose response (AID 504742); format: protein-complex assay
[11] = molecular target: Histone-lysine N-methyltransferase NSD2 (Homo sapiens, UniProt O96028); format: biochemical
Histone-lysine N-methyltransferase NSD2, sequence (O96028 whole entry): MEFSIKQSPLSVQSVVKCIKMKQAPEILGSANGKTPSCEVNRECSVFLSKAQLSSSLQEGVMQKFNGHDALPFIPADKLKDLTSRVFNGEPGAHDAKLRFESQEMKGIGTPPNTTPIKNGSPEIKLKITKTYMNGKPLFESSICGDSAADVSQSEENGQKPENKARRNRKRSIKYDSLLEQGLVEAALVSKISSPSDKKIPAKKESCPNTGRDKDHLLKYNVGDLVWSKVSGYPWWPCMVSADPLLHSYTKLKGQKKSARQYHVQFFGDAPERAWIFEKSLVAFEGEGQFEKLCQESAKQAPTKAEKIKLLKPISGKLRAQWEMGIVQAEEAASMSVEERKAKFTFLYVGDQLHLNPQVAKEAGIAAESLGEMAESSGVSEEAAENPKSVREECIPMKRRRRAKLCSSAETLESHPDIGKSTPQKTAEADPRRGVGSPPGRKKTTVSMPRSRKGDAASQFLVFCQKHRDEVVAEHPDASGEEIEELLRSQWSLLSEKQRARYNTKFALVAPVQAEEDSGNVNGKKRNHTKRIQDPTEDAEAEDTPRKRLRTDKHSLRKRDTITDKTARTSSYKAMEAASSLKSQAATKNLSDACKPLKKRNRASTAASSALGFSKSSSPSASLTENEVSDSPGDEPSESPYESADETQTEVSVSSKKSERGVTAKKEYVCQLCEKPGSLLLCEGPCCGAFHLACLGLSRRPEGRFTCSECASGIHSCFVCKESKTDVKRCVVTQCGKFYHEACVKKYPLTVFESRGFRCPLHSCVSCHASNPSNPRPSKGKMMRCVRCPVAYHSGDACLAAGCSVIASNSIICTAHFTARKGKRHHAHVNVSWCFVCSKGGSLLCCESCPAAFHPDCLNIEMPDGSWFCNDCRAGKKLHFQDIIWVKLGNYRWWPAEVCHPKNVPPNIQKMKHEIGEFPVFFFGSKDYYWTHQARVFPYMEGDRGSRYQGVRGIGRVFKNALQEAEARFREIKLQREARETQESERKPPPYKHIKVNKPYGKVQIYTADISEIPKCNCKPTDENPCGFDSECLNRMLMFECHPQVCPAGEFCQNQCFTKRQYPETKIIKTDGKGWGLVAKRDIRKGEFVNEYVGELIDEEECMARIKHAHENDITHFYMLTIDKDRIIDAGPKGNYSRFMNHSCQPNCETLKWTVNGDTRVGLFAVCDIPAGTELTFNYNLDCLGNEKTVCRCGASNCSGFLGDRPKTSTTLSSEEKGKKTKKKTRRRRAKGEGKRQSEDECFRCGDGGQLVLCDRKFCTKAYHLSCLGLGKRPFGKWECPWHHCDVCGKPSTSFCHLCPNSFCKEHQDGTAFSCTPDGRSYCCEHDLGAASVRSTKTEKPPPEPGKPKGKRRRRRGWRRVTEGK

T1 sequence (Q9UBE0 whole entry): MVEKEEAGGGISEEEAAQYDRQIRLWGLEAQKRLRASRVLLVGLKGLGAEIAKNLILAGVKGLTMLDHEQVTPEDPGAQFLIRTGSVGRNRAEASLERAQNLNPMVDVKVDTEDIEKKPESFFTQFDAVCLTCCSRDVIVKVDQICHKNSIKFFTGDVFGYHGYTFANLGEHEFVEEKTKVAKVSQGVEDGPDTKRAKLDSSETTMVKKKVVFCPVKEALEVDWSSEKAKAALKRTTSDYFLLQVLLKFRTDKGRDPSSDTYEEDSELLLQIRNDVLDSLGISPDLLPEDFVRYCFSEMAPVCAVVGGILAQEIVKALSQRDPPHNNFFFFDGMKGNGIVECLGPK
T1 sequence (Q9UBT2 whole entry): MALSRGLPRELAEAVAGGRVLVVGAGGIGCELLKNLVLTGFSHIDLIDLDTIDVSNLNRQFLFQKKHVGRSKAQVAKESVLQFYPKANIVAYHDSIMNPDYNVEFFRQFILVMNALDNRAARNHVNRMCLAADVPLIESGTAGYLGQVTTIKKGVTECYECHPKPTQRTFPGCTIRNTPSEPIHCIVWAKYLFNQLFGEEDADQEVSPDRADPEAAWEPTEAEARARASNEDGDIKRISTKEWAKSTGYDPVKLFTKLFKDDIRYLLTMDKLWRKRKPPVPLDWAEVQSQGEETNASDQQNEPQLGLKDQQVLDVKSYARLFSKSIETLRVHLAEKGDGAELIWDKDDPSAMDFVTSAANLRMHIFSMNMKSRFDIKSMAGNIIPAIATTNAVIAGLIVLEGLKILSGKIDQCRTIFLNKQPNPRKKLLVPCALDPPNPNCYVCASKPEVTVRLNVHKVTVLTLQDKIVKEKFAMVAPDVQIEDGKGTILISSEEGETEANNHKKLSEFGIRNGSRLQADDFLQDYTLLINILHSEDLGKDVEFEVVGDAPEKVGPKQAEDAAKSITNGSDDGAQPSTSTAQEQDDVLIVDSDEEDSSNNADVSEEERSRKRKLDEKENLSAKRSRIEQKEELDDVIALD

IC50 [4]: 0.472 µM (active)
Compound: O=C(NCCc1ccccc1)Nc1ccc2nc(-c3ccco3)c(-c3ccco3)nc2c1

IC50 [5]: > 54 µM (active) | IC50 [6]: 53.2 µM (inactive) | EC50 [7]: 10.1 µM (active) | IC50 (Genome polyprotein): 51 µM (active) | EC50 [8]: 19.5 µM (inconclusive) | IC50 [9]: 159 µM (active) | IC50 [10]: > 66 µM (inactive) | AC50 [11]: 10.8 µM (active)
Compound: O=C(O)c1ccc2nc(-c3ccco3)c(-c3ccco3)nc2c1
IC50 (Troponin, cardiac muscle): 20.9 µM (inactive)

More lines, now with the values behind:

Compound: C=CCOc1c(Br)cc(/C=C2\SC(Nc3ccccc3)=NC2=O)cc1OC
IC50 (SUMO-activating enzyme [1]): 29.9 µM (active) | IC50 (SUMO-activating enzyme [2]): 12 µM (active)

Compound: CCOc1ccc(Br)cc1CSC(=N)N
IC50 [3]: > 300 µM (active)

Compound: CN(C)c1ccc(NC(=O)Cn2sc3ccccc3c2=O)cc1
IC50 (Hexokinase): 7.29 µM (active)
